Source: ChEMBL document CHEMBL4706510, “Structure-based design, semi-synthesis and anti-inflammatory activity of tocotrienolic amides as 5-lipoxygenase inhibitors” (Eur J Med Chem, 2020)
Calls of active or inactive are those of the source. No cut-off for these calls is given here.

Tested on: PMNL
Assay: Induction of 15-HETE formation in human PMNL cells by RP-HPLC analysis
Assay type: functional, cell-based

Structure (SMILES) | Activity
C/C(=C\CC/C(C)=C/CC[C@]1(C)CCc2c(C)c(O)c(C)c(C)c2O1)CC/C=C(\C)C(=O)NCc1cccnc1 | Active
C/C(=C\CC/C(C)=C/CC[C@]1(C)CCc2c(C)c(O)cc(C)c2O1)CC/C=C(\C)C(=O)NCC1CCCCC1 | Active
C/C(=C\CC/C(C)=C/CC[C@]1(C)CCc2c(C)c(O)c(C)c(C)c2O1)CC/C=C(\C)C(=O)NCC1CCCCC1 | Active
COc1ccc(CNC(=O)/C(C)=C/CC/C(C)=C/CC/C(C)=C/CC[C@]2(C)CCc3c(C)c(O)c(C)c(C)c3O2)cc1 | Active
